{"source": "paper PMC7450057", "about": "“Enhancing intracellular accumulation and target engagement of PROTACs with reversible covalent chemistry” (Nature Communications, 2020)", "key": {"MOLM-14 cells": {"system": "MOLM-14 cells", "test": "Quantification of intracellular drug concentration by LC-MS", "assay_type": "in vitro ADME", "details": "for Intracellular concentration: Concentration of compound, AVE / intracellular amount, AVE / intracellular amount / Intracellular concentration: Concentration of compound: 200 nM; for Intracellular concentration: Concentration of compound, AVE / intracellular amount, AVE: average of 3 replicates; for intracellular amount: initial amount 0.4000 nmol; for Intracellular concentration: Concentration of compound: sample volume 400 µL", "protocol": "MOLM-14 cells were seeded at a density of 0.5 × 10^6 per mL in 2 mL medium. […] The samples were immediately centrifuged at 12,000 × g for 15 min at 4 °C, then removing the supernatant. In all, 400 μL of NP-40 lysis buffer was added to the cell pellet and mixed thoroughly. The mixtures were rocked for 1 h at 4 °C and centrifuged at 12,000 × g for 15 min at 4 °C. Then the supernatant was transferred to new EP tubes. In total, 20 µL supernatant was extracted with 180 µL of acetonitrile (containing internal standard: 250 nM of RNC-Ctrl) and centrifuged at the same conditions described above. Take 75 μL of supernatant for liquid chromatography-mass spectrometry analysis.\nThe mass spectrometer was operated in positive SIM ion mode (fragmentor 120 V; cycle time 0.6 s/cycle; Agilent Technologies 6130 Quadrupole LC/MS)."}, "BTK": {"biological_target": "BTK (Homo sapiens, UniProt Q06187)", "sequence (Q06187 whole entry)": "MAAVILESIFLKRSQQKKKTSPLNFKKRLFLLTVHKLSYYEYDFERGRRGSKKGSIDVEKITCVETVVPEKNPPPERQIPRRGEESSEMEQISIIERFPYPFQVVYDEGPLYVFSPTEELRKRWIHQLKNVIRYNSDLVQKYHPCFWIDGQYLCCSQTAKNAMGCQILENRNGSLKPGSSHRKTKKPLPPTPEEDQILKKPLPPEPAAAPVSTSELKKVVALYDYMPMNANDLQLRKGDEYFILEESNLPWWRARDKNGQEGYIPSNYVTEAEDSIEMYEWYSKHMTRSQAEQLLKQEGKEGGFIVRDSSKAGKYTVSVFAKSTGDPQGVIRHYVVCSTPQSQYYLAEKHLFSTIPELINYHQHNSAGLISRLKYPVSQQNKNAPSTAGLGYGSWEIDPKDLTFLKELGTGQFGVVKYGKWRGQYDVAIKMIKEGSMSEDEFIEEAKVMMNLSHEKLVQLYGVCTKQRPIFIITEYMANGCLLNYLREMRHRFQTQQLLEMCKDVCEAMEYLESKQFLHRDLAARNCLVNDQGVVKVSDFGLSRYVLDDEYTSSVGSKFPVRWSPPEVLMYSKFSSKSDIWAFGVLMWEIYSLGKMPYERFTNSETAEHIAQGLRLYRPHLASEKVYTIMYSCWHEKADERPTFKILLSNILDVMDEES", "test": "BTK degradation in MOLM-14 cells (western blot)", "assay_type": "cell-based", "design": "endogenous in cells; host or cells: MOLM-14", "details": "for Quantification anti-BTK / anti-β-actin (BTK level vs DMSO): Figure 2b, duplicates"}, "[1]": {"biological_target": "truncated Cereblon protein (Homo sapiens, UniProt Q96SW2)", "sequence (Q96SW2 318-426)": "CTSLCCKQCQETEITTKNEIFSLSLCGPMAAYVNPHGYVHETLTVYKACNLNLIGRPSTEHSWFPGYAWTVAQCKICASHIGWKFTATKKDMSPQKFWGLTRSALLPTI", "test": "CRBN binding assay (fluorescence quenching)", "details": "for Fluorescence Intensity: Supplementary Figure 11, replicates", "protocol": "The Kd values of compounds to CRBN were measured based on fluorescence quenching after compounds binding to CRBN. […] All the compounds were dissolved in DMSO (10 mM) as stock solutions. The final drug concentration is 100 nM. […] Fluorescence intensity values for control wells (assay buffer only) were subtracted from each data point prior to analysis. The Kd was calculated using GraphPad Prism with the following equation curve fit. I=I0−If×Kd/P0+Kd+If"}, "[2]": {"test": "Permeability by lipid-PAMPA method (Pharmaron)", "assay_type": "in vitro ADME", "details": "PAMPA", "protocol": "The permeability of compounds was measured using Lipid-PAMPA method by Pharmaron. Preparation of stock solutions: testosterone and methotrexate were used as control compounds in this assay. The stock solutions of positive controls were prepared in DMSO or acetonitrile at the concentration of 10 mM. Prepare a stock solution of compounds in DMSO at the concentration of 10 mM, and further dilute with PBS (pH 7.4). […]\nAssay procedures: prepare a 1.8% solution (w/v) of lecithin in dodecane, and sonicate the mixture to ensure a complete dissolution. Carefully pipette 5 μL of the lecithin/dodecane mixture into each acceptor plate well (top compartment), avoiding pipette tip contact with the membrane. Immediately after the application of the artificial membrane (within 10 min), add 300 μL of PBS (pH 7.4) solution to each well of the acceptor plate. Add 300 μL of drug-containing solutions to each well of the donor plate (bottom compartment) in triplicate. Slowly and carefully place the acceptor plate into the donor plate, making sure the underside of the membrane is in contact with the drug-containing solutions in all wells. Replace the plate lid and incubate at 25 °C, 60 rpm for 16 h. After incubation, aliquots of 50 μL from each well of acceptor and donor plate are transferred into a 96-well plate. Add 450 μL of methanol (containing IS: 100 nM Alprazolam, 200 nM Caffeine, 100 nM Tolbutamide) into each well. Cover with plate lid. Vortex at 750 rpm for 100 s. Samples were centrifuged at 3220 × g for 20 min. Determine the compound concentrations by LC/MS/MS. The effective permeability (Pe), in units of centimeter per second, can be calculated using the following equation: LogPe=LogC×−Ln1−drugacceptor/drugequilibrium"}}, "note": "Several values for one entry are separate records, joined by “and”; a condition that tells them apart may be missing. Equal values may be shown once. Entries after “also recorded” stand apart in the source; their conditions may differ."}
{"smiles": "CN(CC=CC(=O)N1CCCC(n2nc(-c3ccc(Oc4ccccc4)cc3)c3c(N)ncnc32)C1)CCCNC(=O)CNc1cccc2c1C(=O)N(C1CCC(=O)NC1=O)C2=O", "note": "(centres unmarked) [IRC-1]", "values": [{"measurement": "Intracellular concentration: Concentration of compound, AVE", "setting": "MOLM-14 cells; 5 min", "value": 0.0785, "unit": "µM"}, {"measurement": "intracellular amount, AVE", "setting": "MOLM-14 cells; 5 min", "value": 0.0314, "unit": "nmol"}, {"measurement": "intracellular amount", "setting": "MOLM-14 cells; 5 min, single replicates", "value": "0.0285 nmol and 0.0325 nmol and 0.0332 nmol"}, {"measurement": "Intracellular concentration: Concentration of compound", "setting": "MOLM-14 cells; 5 min, single replicates", "value": "0.0713 µM and 0.0812 µM and 0.0831 µM"}, {"measurement": "Intracellular concentration: Concentration of compound, AVE", "setting": "MOLM-14 cells; 15 min", "value": 0.0779, "unit": "µM"}, {"measurement": "intracellular amount, AVE", "setting": "MOLM-14 cells; 15 min", "value": 0.0311, "unit": "nmol"}, {"measurement": "intracellular amount", "setting": "MOLM-14 cells; 15 min, single replicates", "value": "0.0307 nmol and 0.0322 nmol and 0.0305 nmol"}, {"measurement": "Intracellular concentration: Concentration of compound", "setting": "MOLM-14 cells; 15 min, single replicates", "value": "0.0767 µM and 0.0806 µM and 0.0763 µM"}, {"measurement": "Intracellular concentration: Concentration of compound, AVE", "setting": "MOLM-14 cells; 30 min", "value": 0.0702, "unit": "µM"}, {"measurement": "intracellular amount, AVE", "setting": "MOLM-14 cells; 30 min", "value": 0.0281, "unit": "nmol"}, {"measurement": "intracellular amount", "setting": "MOLM-14 cells; 30 min, single replicates", "value": "0.0259 nmol and 0.0296 nmol and 0.0288 nmol"}, {"measurement": "Intracellular concentration: Concentration of compound", "setting": "MOLM-14 cells; 30 min, single replicates", "value": "0.0648 µM and 0.0740 µM and 0.0719 µM"}, {"measurement": "Intracellular concentration: Concentration of compound, AVE", "setting": "MOLM-14 cells; 60 min", "value": 0.0651, "unit": "µM"}, {"measurement": "intracellular amount, AVE", "setting": "MOLM-14 cells; 60 min", "value": 0.0260, "unit": "nmol"}, {"measurement": "intracellular amount", "setting": "MOLM-14 cells; 60 min, single replicates", "value": "0.0274 nmol and 0.0266 nmol and 0.0240 nmol"}, {"measurement": "Intracellular concentration: Concentration of compound", "setting": "MOLM-14 cells; 60 min, single replicates", "value": "0.0686 µM and 0.0666 µM and 0.0601 µM"}, {"measurement": "Intracellular concentration: Concentration of compound, AVE", "setting": "MOLM-14 cells; 90 min", "value": 0.0717, "unit": "µM"}, {"measurement": "intracellular amount, AVE", "setting": "MOLM-14 cells; 90 min", "value": 0.0287, "unit": "nmol"}, {"measurement": "intracellular amount", "setting": "MOLM-14 cells; 90 min, single replicates", "value": "0.0275 nmol and 0.0290 nmol and 0.0295 nmol"}, {"measurement": "Intracellular concentration: Concentration of compound", "setting": "MOLM-14 cells; 90 min, single replicates", "value": "0.0688 µM and 0.0725 µM and 0.0738 µM"}, {"measurement": "Intracellular concentration: Concentration of compound, AVE", "setting": "MOLM-14 cells; 120 min", "value": 0.0652, "unit": "µM"}, {"measurement": "intracellular amount, AVE", "setting": "MOLM-14 cells; 120 min", "value": 0.0261, "unit": "nmol"}, {"measurement": "intracellular amount", "setting": "MOLM-14 cells; 120 min, single replicates", "value": "0.0239 nmol and 0.0281 nmol and 0.0261 nmol"}, {"measurement": "Intracellular concentration: Concentration of compound", "setting": "MOLM-14 cells; 120 min, single replicates", "value": "0.0598 µM and 0.0703 µM and 0.0653 µM"}, {"measurement": "Intracellular concentration: Concentration of compound, AVE", "setting": "MOLM-14 cells; 240 min", "value": 0.0595, "unit": "µM"}, {"measurement": "intracellular amount, AVE", "setting": "MOLM-14 cells; 240 min", "value": 0.0238, "unit": "nmol"}, {"measurement": "intracellular amount", "setting": "MOLM-14 cells; 240 min, single replicates", "value": "0.0228 nmol and 0.0239 nmol and 0.0246 nmol"}, {"measurement": "Intracellular concentration: Concentration of compound", "setting": "MOLM-14 cells; 240 min, single replicates", "value": "0.0571 µM and 0.0598 µM and 0.0616 µM"}, {"measurement": "Cellular concentration", "setting": "MOLM-14 cells; 5 min, Mean", "value": 0.0314, "unit": "nmol/million cells"}, {"measurement": "Cellular concentration", "setting": "MOLM-14 cells; 5 min, single replicates, MOLM-14, 200 nM", "value": "0.0285 nmol/million cells and 0.0325 nmol/million cells and 0.0332 nmol/million cells"}, {"measurement": "Cellular concentration", "setting": "MOLM-14 cells; 15 min, Mean", "value": 0.0311, "unit": "nmol/million cells"}, {"measurement": "Cellular concentration", "setting": "MOLM-14 cells; 15 min, single replicates, MOLM-14, 200 nM", "value": "0.0307 nmol/million cells and 0.0322 nmol/million cells and 0.0305 nmol/million cells"}, {"measurement": "Cellular concentration", "setting": "MOLM-14 cells; 30 min, Mean", "value": 0.0281, "unit": "nmol/million cells"}, {"measurement": "Cellular concentration", "setting": "MOLM-14 cells; 30 min, single replicates, MOLM-14, 200 nM", "value": "0.0259 nmol/million cells and 0.0296 nmol/million cells and 0.0288 nmol/million cells"}, {"measurement": "Cellular concentration", "setting": "MOLM-14 cells; 60 min, Mean", "value": "0.0260 nmol/million cells and 0.026 nmol/million cells"}, {"measurement": "Cellular concentration", "setting": "MOLM-14 cells; 60 min, single replicates, MOLM-14, 200 nM", "value": "0.0240 nmol/million cells and 0.0274 nmol/million cells and 0.0266 nmol/million cells and 0.024 nmol/million cells"}, {"measurement": "Cellular concentration", "setting": "MOLM-14 cells; 90 min, Mean", "value": 0.0287, "unit": "nmol/million cells"}, {"measurement": "Cellular concentration", "setting": "MOLM-14 cells; 90 min, single replicates, MOLM-14, 200 nM", "value": "0.0290 nmol/million cells and 0.0275 nmol/million cells and 0.029 nmol/million cells and 0.0295 nmol/million cells"}, {"measurement": "Cellular concentration", "setting": "MOLM-14 cells; 120 min, Mean", "value": 0.0261, "unit": "nmol/million cells"}, {"measurement": "Cellular concentration", "setting": "MOLM-14 cells; 120 min, single replicates, MOLM-14, 200 nM", "value": "0.0239 nmol/million cells and 0.0281 nmol/million cells and 0.0261 nmol/million cells"}, {"measurement": "Cellular concentration", "setting": "MOLM-14 cells; 240 min, Mean", "value": 0.0238, "unit": "nmol/million cells"}, {"measurement": "Cellular concentration", "setting": "MOLM-14 cells; 240 min, single replicates, MOLM-14, 200 nM", "value": "0.0228 nmol/million cells and 0.0239 nmol/million cells and 0.0246 nmol/million cells"}, {"measurement": "Quantification anti-BTK / anti-β-actin (BTK level vs DMSO)", "setting": "BTK; 8 nM", "value": "93.1337 and 89.8918"}, {"measurement": "Quantification anti-BTK / anti-β-actin (BTK level vs DMSO)", "setting": "BTK; 40 nM", "value": "73.5656 and 73.5943"}, {"measurement": "Quantification anti-BTK / anti-β-actin (BTK level vs DMSO)", "setting": "BTK; 200 nM", "value": "64.1549 and 63.4726"}, {"measurement": "BTK degradation (in words)", "setting": "BTK; MOLM-14 cells, indicated doses, 24 h", "value": "induced inefficient BTK degradation; also recorded: very little BTK degradation was observed"}, {"measurement": "Fluorescence Intensity", "setting": "[1]; CRBN 0 μM", "value": "2824.6 and 2800.6 and 2664.6"}, {"measurement": "Fluorescence Intensity", "setting": "[1]; CRBN 0.734375 μM", "value": "1780.6 and 1887.6 and 2192.6"}, {"measurement": "Fluorescence Intensity", "setting": "[1]; CRBN 1.46875 μM", "value": "1780.6 and 1687.6 and 2021.6"}, {"measurement": "Fluorescence Intensity", "setting": "[1]; CRBN 2.9375 μM", "value": "1637.6 and 1410.6 and 1592.6"}, {"measurement": "Fluorescence Intensity", "setting": "[1]; CRBN 5.875 μM", "value": "1188.6 and 1223.6 and 1189.6"}, {"measurement": "Fluorescence Intensity", "setting": "[1]; CRBN 11.75 μM", "value": "912.6 and 875.6 and 944.6"}, {"measurement": "Fluorescence Intensity", "setting": "[1]; CRBN 23.5 μM", "value": "936.6 and 917.6 and 925.6"}, {"measurement": "Kd", "setting": "[1]; truncated Cereblon protein, fluorescence quenching, triplicates, read-out: Kd", "value": 1500, "unit": "nM"}, {"measurement": "recovery at 16 h, 10 μM", "setting": "[2]; Recovery%", "value": 17.4, "unit": "%"}, {"measurement": "Papp at 16 h, 10 μM", "setting": "[2]; pH 7.4", "value": "< 0.0245", "unit": "×10⁻⁶ cm/s"}]}
